Test results reported in patent publication US11730720B2, “ALK5 inhibitors” (THERAVANCE BIOPHARMA R&D IP, LLC, priority 2018, dated 2023).

How the values were obtained:
[1] = target: T1, recombinant human ALK5 (TGF-βR1) protein (Homo sapiens, UniProt P36897); assay: Biochemical ALK5 (TGF-βR1) assay to measure pKi (LANCE Ultra ULight kinase assay); conditions: apparent pKi, converted from pIC50 using the Cheng-Prusoff equation
T1 construct: purchased Life Technologies PR9075A
T1 sequence (P36897 34-503): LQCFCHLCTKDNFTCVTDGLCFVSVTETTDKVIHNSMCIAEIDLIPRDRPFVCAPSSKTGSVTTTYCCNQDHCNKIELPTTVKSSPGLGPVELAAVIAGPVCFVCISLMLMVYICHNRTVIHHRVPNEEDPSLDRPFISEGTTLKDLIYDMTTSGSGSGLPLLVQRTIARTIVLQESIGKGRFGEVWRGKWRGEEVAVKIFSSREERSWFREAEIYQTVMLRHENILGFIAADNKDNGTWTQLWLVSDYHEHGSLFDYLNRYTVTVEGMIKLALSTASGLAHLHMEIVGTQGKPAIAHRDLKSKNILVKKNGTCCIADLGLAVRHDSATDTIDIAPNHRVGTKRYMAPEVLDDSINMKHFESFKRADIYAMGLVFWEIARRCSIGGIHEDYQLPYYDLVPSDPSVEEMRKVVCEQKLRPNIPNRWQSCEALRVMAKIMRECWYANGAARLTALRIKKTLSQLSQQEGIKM
Summary of the method: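 TR-FRET kinase format: compound dose range 10 μM–25 pM equilibrated 60 min with human ALK5 and ULight-labelled topoisomerase 2α peptide in HEPES/MgCl2 buffer pH 7.5 with DTT. Reaction started with ATP (125 μM stock, 5× final), 60 min at 37° C, stopped with EDTA/Eu-anti-phospho antibody; pKi derived from pIC50 via Cheng-Prusoff.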

[2] = test system: TGF-β-stimulated SMAD3 phosphorylation in BEAS-2B cells; assay: Cellular ALK5 potency assay, inhibition of TGF-β stimulated pSMAD3 formation in BEAS-2B cells; assay type: cell-based; conditions: Homo sapiens, inhibition of TGF-β (10 ng/mL) stimulated pSMAD3 formation, 1 hour compound incubation, read-out: BEAS2B pIC50 (converted)
Summary of the method: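 Phospho-SMAD3 was quantified by AlphaLISA in lysates of human lung epithelial BEAS-2B cells. Compound was added 1 h (37 °C, HEPES/BSA-supplemented HBSS) before a 30 min challenge with 10 ng/mL TGF-β. Values are pIC50 relative to stimulated cells without compound.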

Row | Structure (SMILES) | Ki [1] | IC50 [2]
1 | Fc1cc(F)c(-c2n[nH]cc2-c2ccc3ncc(NC4CCNCC4)cc3n2)cc1Cl [Compound 6-10, 6-[3-(5-chloro-2,4-difluoro-phenyl)-1H-pyrazol-4-yl]-N-(4-piperidyl)-1,5-naphthyridin-3-amine] | 0.0398 to 0.316 nM | 200 to 1260 nM
2 | Fc1cc(F)c(-c2n[nH]cc2-c2ccc3ncc(NC[C@H]4CCCCN4)cc3n2)cc1Cl [Compound 6-11, 6-[3-(5-chloro-2,4-difluoro-phenyl)-1H-pyrazol-4-yl]-N-[[(2R)-2-piperidyl]methyl]-1,5-naphthyridin-3-amine] | 0.398 to 3.16 nM | 25.1 to 158 nM
3 | Fc1cc(F)c(-c2n[nH]cc2-c2ccc3ncc(NC[C@@H]4CCCCN4)cc3n2)cc1Cl [Compound 6-12, 6-[3-(5-chloro-2,4-difluoro-phenyl)-1H-pyrazol-4-yl]-N-[[(2S)-2-piperidyl]methyl]-1,5-naphthyridin-3-amine] | 0.398 to 3.16 nM | 25.1 to 158 nM
4 | CC(C)(C)N1CCN(CCNc2cnc3ccc(-c4c[nH]nc4-c4cc(Cl)c(F)cc4F)nc3c2)CC1 [Compound 6-13, N-(2-(4-(tert-butyl)piperazin-1-yl)ethyl)-6-(3-(5-chloro-2,4-difluorophenyl)-1H-pyrazol-4-yl)-1,5-naphthyridin-3-amine] | 0.0398 to 0.316 nM | 25.1 to 158 nM
5 | Fc1cc(F)c(-c2n[nH]cc2-c2ccc3ncc(N4CC(N5CCCCC5)C4)cc3n2)cc1Cl [Compound 6-14, 2-(3-(5-chloro-2,4-difluorophenyl)-1H-pyrazol-4-yl)-7-(3-(piperidin-1-yl)azetidin-1-yl)-1,5-naphthyridine] | 0.0398 to 0.316 nM | 25.1 to 158 nM
6 | CCN1CCC(N(C)c2cnc3ccc(-c4c[nH]nc4-c4cc(Cl)c(F)cc4F)nc3c2)CC1 [Compound 6-15, 6-[3-(5-chloro-2,4-difluoro-phenyl)-1H-pyrazol-4-yl]-N-(1-ethyl-4-piperidyl)-N-methyl-1,5-naphthyridin-3-amine] | 0.398 to 3.16 nM | 25.1 to 158 nM
7 | CN1CCC(N(C)c2cnc3ccc(-c4c[nH]nc4-c4cc(Cl)c(F)cc4F)nc3c2)CC1 [Compound 6-16, 6-[3-(5-chloro-2,4-difluoro-phenyl)-1H-pyrazol-4-yl]-N-methyl-N-(1-methyl-4-piperidyl)-1,5-naphthyridin-3-amine] | 0.398 to 3.16 nM | 25.1 to 158 nM
8 | CN1CCN(C2CCN(c3cnc4ccc(-c5c[nH]nc5-c5cc(Cl)c(F)cc5F)nc4c3)CC2)CC1 [Compound 6-17, 2-[3-(5-chloro-2,4-difluoro-phenyl)-1H-pyrazol-4-yl]-7-[4-(4-methylpiperazin-1-yl)-1-piperidyl]-1,5-naphthyridine] | 0.0398 to 0.316 nM | 25.1 to 158 nM
9 | CN(C)C1CCN(c2cnc3ccc(-c4c[nH]nc4-c4cc(Cl)c(F)cc4F)nc3c2)CC1 [Compound 6-18, 1-[6-[3-(5-chloro-2,4-difluoro-phenyl)-1H-pyrazol-4-yl]-1,5-naphthyridin-3-yl]-N,N-dimethyl-piperidin-4-amine] | 0.0398 to 0.316 nM | 25.1 to 158 nM
10 | CN(C)C1CN(c2cnc3ccc(-c4c[nH]nc4-c4cc(Cl)c(F)cc4F)nc3c2)C1 [Compound 6-19, 1-[6-[3-(5-chloro-2,4-difluoro-phenyl)-1H-pyrazol-4-yl]-1,5-naphthyridin-3-yl]-N,N-dimethyl-azetidin-3-amine] | 0.0398 to 0.316 nM | 25.1 to 158 nM
11 | CN(C)C1(C)CN(c2cnc3ccc(-c4c[nH]nc4-c4cc(Cl)c(F)cc4F)nc3c2)C1 [Compound 6-20, 1-[6-[3-(5-chloro-2,4-difluoro-phenyl)-1H-pyrazol-4-yl]-1,5-naphthyridin-3-yl]-N,N,3-trimethyl-azetidin-3-amine] | 0.398 to 3.16 nM | 25.1 to 158 nM
12 | CNC1CCN(c2cnc3ccc(-c4c[nH]nc4-c4cc(Cl)c(F)cc4F)nc3c2)CC1 [Compound 6-23, 1-(6-(3-(5-chloro-2,4-difluorophenyl)-1H-pyrazol-4-yl)-1,5-naphthyridin-3-yl)-N-methylpiperidin-4-amine] | 0.0398 to 0.316 nM | 25.1 to 158 nM
13 | CN(CCN1CCNCC1)c1cnc2ccc(-c3c[nH]nc3-c3cc(Cl)c(F)cc3F)nc2c1 [Compound 6-24, 6-[3-(5-chloro-2,4-difluoro-phenyl)-1H-pyrazol-4-yl]-N-methyl-N-(2-piperazin-1-ylethyl)-1,5-naphthyridin-3-amine] | 0.398 to 3.16 nM | 25.1 to 158 nM
14 | CNC(=O)[C@@H]1CN(c2cnc3ccc(-c4c[nH]nc4-c4cc(Cl)c(F)cc4F)nc3c2)CCN1 [Compound 6-26, (2S)-4-[6-[3-(5-chloro-2,4-difluoro-phenyl)-1H-pyrazol-4-yl]-1,5-naphthyridin-3-yl]-N-methyl-piperazine-2-carboxamide] | 0.398 to 3.16 nM | 25.1 to 158 nM
15 | COC(=O)[C@H]1CN(c2cnc3ccc(-c4c[nH]nc4-c4cc(Cl)c(F)cc4F)nc3c2)CCN1 [Compound 6-27, methyl (2R)-4-[6-[3-(5-chloro-2,4-difluoro-phenyl)-1H-pyrazol-4-yl]-1,5-naphthyridin-3-yl]piperazine-2-carboxylate] | 0.398 to 3.16 nM | 25.1 to 158 nM
16 | COC(=O)[C@@H]1CN(c2cnc3ccc(-c4c[nH]nc4-c4cc(Cl)c(F)cc4F)nc3c2)CCN1 [Compound 6-28, methyl (2S)-4-[6-[3-(5-chloro-2,4-difluoro-phenyl)-1H-pyrazol-4-yl]-1,5-naphthyridin-3-yl]piperazine-2-carboxylate] | 0.398 to 3.16 nM | 25.1 to 158 nM
17 | CNCC1CN(c2cnc3ccc(-c4c[nH]nc4-c4cc(Cl)c(F)cc4F)nc3c2)C1 [Compound 6-29, 1-[1-[6-[3-(5-chloro-2,4-difluoro-phenyl)-1H-pyrazol-4-yl]-1,5-naphthyridin-3-yl]azetidin-3-yl]-N-methyl-methanamine] | ≤ 0.0316 nM | ≤ 20 nM
18 | NC1CN(c2cnc3ccc(-c4c[nH]nc4-c4cc(Cl)c(F)cc4F)nc3c2)C1 [Compound 6-30, 1-[6-[3-(5-chloro-2,4-difluoro-phenyl)-1H-pyrazol-4-yl]-1,5-naphthyridin-3-yl]azetidin-3-amine] | 0.0398 to 0.316 nM | 25.1 to 158 nM
19 | CNC1CN(c2cnc3ccc(-c4c[nH]nc4-c4cc(Cl)c(F)cc4F)nc3c2)C1 [Compound 6-31, 1-[6-[3-(5-chloro-2,4-difluoro-phenyl)-1H-pyrazol-4-yl]-1,5-naphthyridin-3-yl]-N-methyl-azetidin-3-amine] | 0.0398 to 0.316 nM | ≤ 20 nM
20 | CN(CC1CNC1)c1cnc2ccc(-c3c[nH]nc3-c3cc(Cl)c(F)cc3F)nc2c1 [Compound 6-32, N-(azetidin-3-ylmethyl)-6-[3-(5-chloro-2,4-difluoro-phenyl)-1H-pyrazol-4-yl]-N-methyl-1,5-naphthyridin-3-amine] | 0.0398 to 0.316 nM | 25.1 to 158 nM
21 | Fc1cc(F)c(-c2n[nH]cc2-c2ccc3ncc(N4CC5CNC5C4)cc3n2)cc1Cl (centres unmarked) [Compound 6-33, 2-[3-(5-chloro-2,4-difluoro-phenyl)-1H-pyrazol-4-yl]-7-(3,6-diazabicyclo[3.2.0]heptan-3-yl)-1,5-naphthyridine] | 0.398 to 3.16 nM | 25.1 to 158 nM
22 | NC1CCN(c2cnc3ccc(-c4c[nH]nc4-c4cc(Cl)c(F)cc4F)nc3c2)C1 (centres unmarked) [Compound 6-34, 1-[6-[3-(5-chloro-2,4-difluoro-phenyl)-1H-pyrazol-4-yl]-1,5-naphthyridin-3-yl]pyrrolidin-3-amine] | ≤ 0.0316 nM | ≤ 20 nM
